Laboratory results reported in patent US12564588B2, “HECT E3 ubiquitin liagase inhibitors and uses thereof” (Northwestern University, priority 2021, dated 2026).

Columns and labels:
[1] = target: T1, recombinant UBE3A HECT domain (Homo sapiens, UniProt Q05086); assay: fluorescence thermal shift analysis (FTS); assay type: binding; conditions: 0.5 uM UBE3A, Hepes buffer pH7.5, Tm shifted to lower temperature
T1 construct: a truncated UBE3A protein (residues 495-852 of isoform 1) using E. coli; made in house; host or cells: E. coli
T1 sequence (Q05086 518-875): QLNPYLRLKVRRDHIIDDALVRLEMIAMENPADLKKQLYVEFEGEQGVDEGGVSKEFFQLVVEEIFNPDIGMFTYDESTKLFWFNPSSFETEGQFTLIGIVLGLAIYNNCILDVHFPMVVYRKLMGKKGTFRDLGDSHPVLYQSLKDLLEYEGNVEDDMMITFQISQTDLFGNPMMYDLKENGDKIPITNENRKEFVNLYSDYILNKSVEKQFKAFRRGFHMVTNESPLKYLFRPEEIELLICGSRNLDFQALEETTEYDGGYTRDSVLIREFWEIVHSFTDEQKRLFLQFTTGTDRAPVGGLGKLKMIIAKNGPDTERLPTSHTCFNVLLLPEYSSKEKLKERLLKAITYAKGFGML
Description: FIG. 6A-B. Fluorescence thermal shift analysis of recombinant UBE3A HECT domain with the compound #3-1. (A) Melting curves of recombinant UBE3A HECT domain with multiple concentrations of #3-1 show the melting temperature Tm was shifted to lower temperature progressively with increase in #3-1 concentration. The rise of pre-transition background reading indicates destabilizing of the protein by the small molecule inhibitor, which is consists with the decrease of Tm by the compound. (B) Plot of normalized melting curves with respect to compound concentrations. The compound #3-1 shifts the melting temperature in a significant fashion, indicating specific binding. For example, the Tm is shifted 2.5 degree by 15 uM #3-1 and 5.1 degree by 25 uM #3-1 from the reference value. The test was done with 0.5 uM UBE3A in Hepes buffer (20 mM Hepes, 150 mM NaCl, pH7.5).
To verify the physical interaction between the HECT domain of UBE3A and the identified compounds and also develop a high throughput assay for further screening, we have developed a fluorescence thermal shift analysis (FTS). we have prepared a truncated UBE3A protein (residues 495-852 of isoform 1) using E. coli and performed preliminary FTS test (FIG. 6). […] Small molecule binding affects protein thermal stability, therefore can be detected through a shift in protein's thermal denaturation (melting) temperature (Tm).

HeLa cells = assay: cytotoxicity in HPV-positive cervical cancer cells (alamarBlue cell viability); assay type: cell-based; conditions: Homo sapiens, 72 hrs incubation
Method: FIG. 7. Cytotoxicity of the hit compound #3-1 in HPV-positive cervical cancer cells. HPV18-positive human cervical cancer HeLa cells were incubated for 72 hrs with the compound #3-1 at the indicated concentrations, followed by determination of cell viability by the alamarBlue™ HS Cell Viability Reagent (Thermo). Data are shown as means±SEM, and the EC50 is estimated to be 30 μM.
We have recently tested whether the compound #3.1 exert any cytotoxic action in HPV-positive cancer cells. Human cervical carcinoma HeLa cells are a widely used HPV18-positive cell lines. We incubated HeLa cells with the compound #3.1 at various concentrations for 72 hours and determined viability of the cells (FIG. 7). This study has shown that the compound #3.1 exerts cytotoxicity in a dose-dependent manner with EC50 at 30 μM.

UBE3A [2] = target: T2, UBE3A (Homo sapiens, UniProt Q05086); assay: in vitro ubiquitination assay (polyubiquitination of S5A); assay type: biochemical; conditions: for IC50: S5A polyubiquitination, varying concentrations, estimated / preliminary; for inhibition of UBE3A-mediated polyubiquitination of S5A: compound at 100 μM, western/immunoblot readout
T2 sequence (Q05086 24-875 limits assumed): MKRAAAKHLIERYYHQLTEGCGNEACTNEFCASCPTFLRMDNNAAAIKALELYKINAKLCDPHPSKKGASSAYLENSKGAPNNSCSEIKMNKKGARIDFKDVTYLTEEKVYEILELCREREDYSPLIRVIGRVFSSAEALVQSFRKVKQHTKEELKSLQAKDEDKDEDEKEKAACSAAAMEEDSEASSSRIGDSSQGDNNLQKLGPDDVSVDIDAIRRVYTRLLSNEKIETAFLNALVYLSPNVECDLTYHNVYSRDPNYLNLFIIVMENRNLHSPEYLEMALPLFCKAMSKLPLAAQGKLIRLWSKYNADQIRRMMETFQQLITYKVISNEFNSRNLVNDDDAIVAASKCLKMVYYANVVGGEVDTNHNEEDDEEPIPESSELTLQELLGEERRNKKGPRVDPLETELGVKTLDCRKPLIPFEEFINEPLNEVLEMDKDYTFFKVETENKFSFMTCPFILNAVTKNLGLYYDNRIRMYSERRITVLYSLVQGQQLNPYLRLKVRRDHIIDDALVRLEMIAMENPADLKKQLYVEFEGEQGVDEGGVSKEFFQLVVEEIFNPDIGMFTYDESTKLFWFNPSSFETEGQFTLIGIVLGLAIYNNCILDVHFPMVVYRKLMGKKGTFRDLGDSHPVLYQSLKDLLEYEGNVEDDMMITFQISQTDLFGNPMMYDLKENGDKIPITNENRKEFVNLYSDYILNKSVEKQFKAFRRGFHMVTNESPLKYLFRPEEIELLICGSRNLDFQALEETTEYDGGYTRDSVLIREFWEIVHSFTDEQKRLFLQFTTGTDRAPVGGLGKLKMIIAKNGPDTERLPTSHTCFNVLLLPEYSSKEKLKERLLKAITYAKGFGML
Method: FIG. 3A-B. Identification of a potential UBE3A inhibitor compound by in vitro ubiquitination assay. (A). Purified UBA1 (E1), UBE2L3 (E2) and UBE3A (E3) were pre-incubated with each compound at 100 uM, followed by incubation with purified ubiquitin (Ub) and S5A in the presence of ATP. […] NC, negative control without active UBE3A; PC, positive control with active UBE3A but with no small molecule. (B). Structure of #3 compound (Zinc 23375107).
FIG. 4A-B. Screening for compounds that are structurally analogous to #3 compound and could bind to the druggable hotspot of the UBE3A HECT domain. Left panel (A): Purified UBA1 (E1), UBE2L3 (E2) and UBE3A (E3) were pre-incubated with structural analogs of #3 compound at 100 μM, followed by incubation with purified ubiquitin (Ub) and S5A in the presence of ATP.
FIG. 5A-B. Inhibition of the E3 activity of UBE3A by various concentrations of compound #3 and #3-1. The UBE3A activity was assayed by the in vitro ubiquitination assay using S5A as a substrate and the indicated concentrations of compound #3 (A) or #3-1 (B). The polyubiquitinated forms of S5A were quantified by western analysis.
We purchased 35 compounds among the 46 hits identified by the initial virtual screen, and tested their abilities to modulate the ubiquitin ligase activity of UBE3A. The in vitro ubiquitination assay was developed using purified ubiquitin (Ub), Uba1 (E1), UbcH7/UBE2L3 (E2), UBE3A (E3), and S5A/Angiocidin/PSMD4 (substrate), as a modification of our previously reported assay (19). The purchased compounds were dissolved in DMSO to generate a stock solution at 10 mM, and then their effects on UBE3A activity were tested by adding each compound at a final concentration of 100 μM. E1, E2 and E3 enzymes were first pre-incubated at 37° C. for 30 min in a buffer containing MgCl2, ATP and each compound. Subsequently, ubiquitin and S5A were added to the reaction and incubated for 60 more minutes. Samples were then analyzed by SDS-PAGE and immunoblotting, and polyubiquitination of the substrate S5A was determined as specific appearance of forms of anti-S5A immunoreactivity at higher molecular weights.

UBE3A [3] = target: T2, UBE3A; conditions: blocks UBE3A oligomerization by substituting Phe727; cited from earlier work

Row | Tm shift from the reference value ([1]; 15 uM compound) [degree] | Tm shift from the reference value ([1]; 25 uM compound) [degree] | IC50 (UBE3A [2]) [µM] | inhibition of UBE3A-mediated polyubiquitination of S5A (UBE3A [2]; listed as #3.1) | SMILES | EC50 (HeLa cells) [µM] | inhibition of UBE3A-mediated polyubiquitination of S5A (UBE3A [2]) | inhibition of UBE3A-mediated polyubiquitination of S5A (UBE3A [2]; listed as Zinc 23375107) | Ki (UBE3A [3]) [µM]
1 | 2.5 | 5.1 | ~10 | inhibited formation of PolyUb-S5A | COc1ccc(CNCc2cccc(C)c2)c(OCC(O)CN2CCN(C)CC2)c1 (stereo not shown) [#3-1, 1-(5-methoxy-2-{[(3-methylbenzyl)amino]methyl}phenoxy)-3-(4-methyl-1-piperazinyl)-2-propanol] | 30 | capable of inhibiting the UBE3A-mediated polyubiquitination of S5A substrate | – | –
2 | – | – | ~100 | – | COc1ccc(CNCC2CCOCC2)c(OCC(O)CN2CCN(C)CC2)c1 (stereo not shown) [#3, 1-(5-methoxy-2-{[(tetrahydro-2H-pyran-4-ylmethyl)amino]methyl}phenoxy)-3-(4-methyl-1-piperazinyl)-2-propanol] | – | inhibited formation of PolyUb-S5A | significantly inhibits polyubiquitination of S5A | –
3 | – | – | – | – | CC(=O)N[C@@H](Cc1ccccc1)C(=O)O [N-acetyl phenylalanine] | – | – | – | 12000
